Results as given in US20240018161A1, “MODULATORS OF CYSTIC FIBROSIS TRANSMEMBRANE CONDUCTANCE REGULATOR” (VERTEX PHARMACEUTICALS INCORPORATED, priority 2020, published 2024).
Where two headings read alike, the source gives them in different places.

Target: CFTR-mediated chloride transport in human intestinal epithelial enteroid cells (Homo sapiens, UniProt P13569)
Assay: Membrane potential dye, Enteroid Assay A
Assay type: cell-based
Settings: for EC50: read-out: Ent. A EC50
Method in brief: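 Membrane potential dye (20 μM methyl oxonol, with 30 μM CaCCinh-A01 and 30 μM Chicago Sky Blue) loaded 25 min at room temperature into ROCK-inhibitor-seeded human enteroid cells. Chloride-free stimulation buffer triggered transport, followed by 15 min fluorescence. % Activity relative to 3 μM/3 μM/300 nM triple-combination control.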

[1] = enteroid cells incubated with test compound 18-24 hours, acute 10 μM forskolin and 300 nM N-[2,4-bis(1,1-dimethylethyl)-5-hydroxyphenyl]-1,4-dihydro-4-oxoquinoline-3-carboxamide
[2] = percentage of chloride transport of triple combination control (3 μM N-[(6-amino-2-pyridyl)sulfonyl]-6-(3-fluoro-5-isobutoxy-phenyl)-2-[(4S)-2,2,4-trimethylpyrrolidin-1-yl]pyridine-3-carboxamide based)

CFTR-mediated chloride transport in human intestinal epithelial enteroid cells, sequence (P13569 with tags, fused parts or gaps DEL508-508): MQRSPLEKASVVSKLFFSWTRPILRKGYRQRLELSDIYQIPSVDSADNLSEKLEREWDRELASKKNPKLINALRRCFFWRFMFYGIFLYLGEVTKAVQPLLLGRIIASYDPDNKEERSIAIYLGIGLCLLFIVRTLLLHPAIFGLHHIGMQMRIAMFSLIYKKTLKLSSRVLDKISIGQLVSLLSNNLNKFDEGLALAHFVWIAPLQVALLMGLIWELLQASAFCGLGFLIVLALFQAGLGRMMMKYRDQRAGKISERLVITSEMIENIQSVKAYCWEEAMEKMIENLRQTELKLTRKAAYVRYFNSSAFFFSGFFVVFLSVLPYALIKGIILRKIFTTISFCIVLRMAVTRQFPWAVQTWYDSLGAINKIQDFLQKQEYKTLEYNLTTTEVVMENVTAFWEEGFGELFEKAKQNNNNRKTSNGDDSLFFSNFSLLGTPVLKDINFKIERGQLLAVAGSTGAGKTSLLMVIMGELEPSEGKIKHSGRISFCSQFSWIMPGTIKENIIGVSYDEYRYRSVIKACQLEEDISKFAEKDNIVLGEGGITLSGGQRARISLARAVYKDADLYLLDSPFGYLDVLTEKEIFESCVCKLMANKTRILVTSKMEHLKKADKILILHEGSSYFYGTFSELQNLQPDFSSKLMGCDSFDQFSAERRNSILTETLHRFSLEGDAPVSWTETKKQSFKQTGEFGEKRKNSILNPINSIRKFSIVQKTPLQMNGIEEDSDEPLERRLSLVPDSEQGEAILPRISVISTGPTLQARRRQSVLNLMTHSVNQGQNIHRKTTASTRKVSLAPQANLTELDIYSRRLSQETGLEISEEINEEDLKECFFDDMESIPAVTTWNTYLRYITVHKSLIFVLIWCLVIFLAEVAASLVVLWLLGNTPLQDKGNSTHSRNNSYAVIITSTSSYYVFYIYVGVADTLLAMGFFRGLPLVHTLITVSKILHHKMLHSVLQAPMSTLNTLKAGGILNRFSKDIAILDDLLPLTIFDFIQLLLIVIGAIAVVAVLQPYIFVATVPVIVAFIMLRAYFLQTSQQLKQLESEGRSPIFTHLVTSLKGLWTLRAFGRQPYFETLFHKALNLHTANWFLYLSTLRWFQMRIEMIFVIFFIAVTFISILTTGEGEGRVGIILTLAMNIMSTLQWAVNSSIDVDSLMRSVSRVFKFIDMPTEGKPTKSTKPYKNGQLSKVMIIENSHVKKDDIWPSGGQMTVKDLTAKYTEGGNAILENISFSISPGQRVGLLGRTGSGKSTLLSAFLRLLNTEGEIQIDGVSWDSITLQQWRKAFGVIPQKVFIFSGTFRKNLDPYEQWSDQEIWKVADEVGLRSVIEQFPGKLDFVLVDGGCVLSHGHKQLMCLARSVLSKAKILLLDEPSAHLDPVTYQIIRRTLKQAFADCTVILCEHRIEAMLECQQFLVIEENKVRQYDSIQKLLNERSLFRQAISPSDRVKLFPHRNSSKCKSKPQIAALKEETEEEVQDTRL

| SMILES | EC50 [1] [µM] | Ent. A Max Activity (%) [2] | Ent. A Max Activity (%) (Enteroid Assay A) | EC50 (Enteroid Assay A) [µM] |
| --- | --- | --- | --- | --- |
| Cc1cccc(C)c1-c1cc2nc(n1)NS(=O)(=O)c1cccc(c1)C(=O)N1CCc3ccccc3C(C1)O2 (centres unmarked) [Compound 220, 12-(2,6-Dimethylphenyl)-15-oxa-8λ^6-thia-1,9,11,26-tetraazapentacyclo[14.8.1.13,7.110,14.017,22]heptacosa-3(27),4,6,10(26),11,13,17,19,21-nonaene-2,8,8-trione] | < 1 | +++ (+++ is >60%) |  |  |
| Cc1cccc(C)c1-c1cc2nc(n1)NS(=O)(=O)c1cccc(c1)C(=O)N1CC(CC3(CCCC3)C1)O2 (centres unmarked) [Compound 229, 18′-(2,6-Dimethylphenyl)-2′-oxa-14′λ^6-thia-7′,15′,17′,20′-tetraazaspiro[cyclopentane-1,5′-tetracyclo[14.3.1.13,7.19,13]docosane]-1′(20′),9′,11′,13′(21′),16′,18′-hexaene-8′,14′,14′-trione] | < 1 | ++ (++ is 30-60%) |  |  |
| Cc1cccc(C)c1-c1cc2nc(n1)NS(=N)(=O)c1cccc(c1)C(=O)N1CCN(C(=O)OC(C)(C)C)CC(C1)O2 (centres unmarked) [Compound 240, tert-butyl 12-(2,6-dimethylphenyl)-8-imino-2,8-dioxo-15-oxa-8λ^6-thia-1,9,11,18,22-pentaazatetracyclo[14.4.1.13,7.110,14]tricosa-3,5,7(23),10,12,14(22)-hexaene-18-carboxylate] |  |  | ++ (++ is 30-60%) | 3 to 30 |
| Cc1cccc(C)c1-c1cc2nc(n1)NS(=N)(=O)c1cccc(c1)C(=O)N1CCNCC(C1)O2 (centres unmarked) [Compound 241, 12-(2,6-Dimethylphenyl)-8-imino-15-oxa-8λ^6-thia-1,9,11,18,22-pentaazatetracyclo[14.4.1.13,7.110,14]tricosa-3,5,7(23),10,12,14(22)-hexaene-2,8-dione] |  |  | + (+ is <30%) |  |
| Cc1cccc(C)c1-c1cc2nc(n1)NS(=N)(=O)c1cccc(c1)C(=O)N1CCNCC(C1)O2 (centres unmarked) [Compound 242, 12-(2,6-Dimethylphenyl)-8-imino-15-oxa-8λ^6-thia-1,9,11,18,22-pentaazatetracyclo[14.4.1.13,7.110,14]tricosa-3,5,7(23),10,12,14(22)-hexaene-2,8-dione] |  |  | + (+ is <30%) |  |
| Cc1cccc(C)c1-c1cc2nc(n1)NS(=N)(=O)c1cccc(c1)C(=O)N1CCN(Cc3ccccc3)CC(C1)O2 (centres unmarked) [Compound 246] |  |  | ++ (++ is 30-60%) | 1 to 3 |
| Cc1cccc(C)c1-c1cc2nc(n1)NS(=N)(=O)c1cccc(c1)C(=O)N1CCN(CCC(C)(C)C)CC(C1)O2 (centres unmarked) [Compound 247] |  |  | + (+ is <30%) | 1 to 3 |
| Cc1cccc(C)c1-c1cc2nc(n1)NS(=O)(=O)N1CCc3ccc(cc31)C(=O)N1Cc3ccccc3[C@@H](O2)[C@H]1CC(C)C [Compound 249] |  |  | ++ (++ is 30-60%) | < 1 |
| Cc1cccc(C)c1-c1cc2nc(n1)NS(=O)(=O)N1CCc3ccc(cc31)C(=O)N1Cc3ccccc3[C@@H](O2)[C@H]1CC(C)C [Compound 250] |  |  | ++ (++ is 30-60%) | 1 to 3 |
| COC(=O)C1CC2CN(C1)C(=O)Nc1cccc(c1)S(=O)(=O)Nc1nc(cc(-c3c(C)cccc3C)n1)O2 (centres unmarked) [Compound 252] | 1 to 3 | ++ (++ is 30-60%) |  |  |
| Cc1cccc(C)c1-c1cc2nc(n1)NS(=O)(=O)c1cccc(c1)C1CCCCN1C(CC(C)C)CO2 (centres unmarked) [Compound 253] |  | + (+ is <300%) |  |  |
| Cc1cccc(C)c1-c1cc2nc(n1)NS(=O)(=O)c1cccc(c1)C(=O)N1CC(C)(C)OCC1CO2 (centres unmarked) [Compound 254] | 1 to 3 | ++ (++ is 30-60%) |  |  |
| Cc1cccc(C)c1-c1cc2nc(n1)NS(=O)(=O)c1cccc(c1)C(=O)N1CCN(C(=O)CC3CCCCC3)C[C@@H]1CO2 [Compound 255] | < 1 | ++ (++ is 30-60%) |  |  |
| Cc1cccc(C)c1-c1cc2nc(n1)NS(=O)(=O)c1cccc(c1)C(=O)N1CCN(CC3CCOC(C)(C)C3)C[C@@H]1CO2 (some centres unmarked) [Compound 256] | < 1 | +++ (+++ is >60%) |  |  |
| Cc1cccc(C)c1-c1cc2nc(n1)NS(=O)(=O)c1cccc(c1)C(=O)N1CCN(CC3(NC(=O)OC(C)(C)C)CCCC3)C[C@@H]1CO2 [Compound 257] | < 1 | +++ (+++ is >60%) |  |  |
| Cc1cccc(C)c1-c1cc2nc(n1)NS(=O)(=O)c1cccc(c1)C(=O)N1CCN(C(=O)N3CCCCC3)C[C@@H]1CO2 [Compound 258] | 3 to 30 | ++ (++ is 30-60%) |  |  |
| CCC(CC)CN1CCN2C(=O)c3cccc(c3)S(=O)(=O)Nc3nc(cc(-c4c(C)cccc4C)n3)OC[C@H]2C1 [Compound 259] | < 1 | +++ (+++ is >60%) |  |  |
| Cc1cccc(C)c1-c1cc2nc(n1)NS(=O)(=O)c1cccc(c1)C(=O)N1CCN(CC3CCCC3)C[C@@H]1CO2 [Compound 260] | < 1 | +++ (+++ is >60%) |  |  |
| Cc1cccc(C)c1-c1cc2nc(n1)NS(=O)(=O)c1cccc(c1)C(=O)N1CCN(CC3(C)COC3)C[C@@H]1CO2 [Compound 261] |  | + (+ is <300%) |  |  |
| Cc1cccc(C)c1-c1cc2nc(n1)NS(=O)(=O)c1cccc(c1)C(=O)N1CCN(CC3CC3)C[C@@H]1CO2 [Compound 262] | 3 to 30 | +++ (+++ is >60%) |  |  |
| Cc1cccc(C)c1-c1cc2nc(n1)NS(=O)(=O)c1cccc(c1)C(=O)N1CCN(CCC3CCOCC3)C[C@@H]1CO2 [Compound 263] | 3 to 30 | ++ (++ is 30-60%) |  |  |

| SMILES | EC50 [1] [µM] | Ent. A Max Activity (%) [2] | Ent. A Max Activity (%) (Enteroid Assay A) | EC50 (Enteroid Assay A) [µM] |
| --- | --- | --- | --- | --- |
| Cc1cccc(C)c1-c1cc2nc(n1)NS(=O)(=O)c1cccc(c1)C(=O)N1CCN(Cc3cnn(C(C)C)c3)C[C@@H]1CO2 [Compound 264] |  | ++ (++ is 30-60%) |  |  |
| CNc1ccc(CN2CCN3C(=O)c4cccc(c4)S(=O)(=O)Nc4nc(cc(-c5c(C)cccc5C)n4)OC[C@H]3C2)cn1 [Compound 265] | 3 to 30 | ++ (++ is 30-60%) |  |  |
| Cc1cccc(C)c1-c1cc2nc(n1)NS(=O)(=O)c1cccc(c1)C(=O)N1CCN(Cc3ccccc3C#N)C[C@@H]1CO2 [Compound 266] | 3 to 30 | +++ (+++ is >60%) |  |  |
| Cc1cccc(C)c1-c1cc2nc(n1)NS(=O)(=O)c1cccc(c1)C(=O)N1CCN(Cc3cccc(C#N)c3)C[C@@H]1CO2 [Compound 267] | 1 to 3 | +++ (+++ is >60%) |  |  |
| Cc1cccc(C)c1-c1cc2nc(n1)NS(=O)(=O)c1cccc(c1)C(=O)N1CCN(CCC(C)C)C[C@@H]1CO2 [Compound 268] | 1 to 3 | +++ (+++ is >60%) |  |  |
| Cc1cccc(C)c1-c1cc2nc(n1)NS(=O)(=O)c1cccc(c1)C(=O)N1CCN(CC(C)C)C[C@@H]1CO2 [Compound 269] | < 1 | +++ (+++ is >60%) |  |  |
| Cc1cccc(C)c1-c1cc2nc(n1)NS(=O)(=O)c1cccc(c1)C(=O)N1CCN(Cc3ccc(C#N)cc3)C[C@@H]1CO2 [Compound 270] | 1 to 3 | +++ (+++ is >60%) |  |  |
| Cc1cccc(C)c1-c1cc2nc(n1)NS(=O)(=O)c1cccc(c1)C(=O)N1CCN(Cc3ccccc3O)C[C@@H]1CO2 [Compound 271] | < 1 | +++ (+++ is >60%) |  |  |
| Cc1cccc(C)c1-c1cc2nc(n1)NS(=O)(=O)c1cccc(c1)C(=O)N1CCN(Cc3cccc(O)c3)C[C@@H]1CO2 [Compound 272] | 3 to 30 | +++ (+++ is >60%) |  |  |
| Cc1cccc(C)c1-c1cc2nc(n1)NS(=O)(=O)c1cccc(c1)C(=O)N1CCN(Cc3ccc(O)cc3)C[C@@H]1CO2 [Compound 273] | 1 to 3 | ++ (++ is 30-60%) |  |  |
| Cc1ccc(CN2CCN3C(=O)c4cccc(c4)S(=O)(=O)Nc4nc(cc(-c5c(C)cccc5C)n4)OC[C@H]3C2)cn1 [Compound 274] | 3 to 30 | +++ (+++ is >60%) |  |  |
| Cc1cccc(C)c1-c1cc2nc(n1)NS(=O)(=O)c1cccc(c1)C(=O)N1CCN(Cc3nccs3)C[C@@H]1CO2 [Compound 275] | 3 to 30 | +++ (+++ is >60%) |  |  |
| Cc1cccc(C)c1-c1cc2nc(n1)NS(=O)(=O)c1cccc(c1)C(=O)N1CCN(Cc3cn(C)nc3C)C[C@@H]1CO2 [Compound 276] |  | ++ (++ is 30-60%) |  |  |
| Cc1cccc(C)c1-c1cc2nc(n1)NS(=O)(=O)c1cccc(c1)C(=O)N1CCN(Cc3ccc[nH]c3=O)C[C@@H]1CO2 [Compound 277] |  | + (+ is <300%) |  |  |
| Cc1cccc(C)c1-c1cc2nc(n1)NS(=O)(=O)c1cccc(c1)C(=O)N1CCN(Cc3cncn3C)C[C@@H]1CO2 [Compound 279] |  | + (+ is <300%) |  |  |
| Cc1cccc(C)c1-c1cc2nc(n1)NS(=O)(=O)c1cccc(c1)C(=O)N1CCN(Cc3ccncc3)C[C@@H]1CO2 [Compound 280] |  | ++ (++ is 30-60%) |  |  |
| Cc1cccc(C)c1-c1cc2nc(n1)NS(=O)(=O)c1cccc(c1)C(=O)N1CCN(Cc3ccccn3)C[C@@H]1CO2 [Compound 281] |  | ++ (++ is 30-60%) |  |  |
| Cc1cccc(C)c1-c1cc2nc(n1)NS(=O)(=O)c1cccc(c1)C(=O)N1CCN(Cc3cccnc3)C[C@@H]1CO2 [Compound 282] | 3 to 30 | ++ (++ is 30-60%) |  |  |
| Cc1cccc(C)c1-c1cc2nc(n1)NS(=O)(=O)c1cccc(c1)C(=O)N1CCN(Cc3cocn3)C[C@@H]1CO2 [Compound 283] |  | ++ (++ is 30-60%) |  |  |
| Cc1cccc(C)c1-c1cc2nc(n1)NS(=O)(=O)c1cccc(c1)C(=O)N1CCN(Cc3c[nH]cn3)C[C@@H]1CO2 [Compound 284] |  | + (+ is <300%) |  |  |
| Cc1cccc(C)c1-c1cc2nc(n1)NS(=O)(=O)c1cccc(c1)C(=O)N1CCN(Cc3ccn(C)n3)C[C@@H]1CO2 [Compound 285] |  | ++ (++ is 30-60%) |  |  |
